Experimental findings from patent publication US20110311533A1 (priority 2010, published 2011) are described below.

The target of the experiment is PrP (Mus musculus, UniProt P04925). Format: cell-based.
PrP, sequence (P04925 23-230 limits assumed): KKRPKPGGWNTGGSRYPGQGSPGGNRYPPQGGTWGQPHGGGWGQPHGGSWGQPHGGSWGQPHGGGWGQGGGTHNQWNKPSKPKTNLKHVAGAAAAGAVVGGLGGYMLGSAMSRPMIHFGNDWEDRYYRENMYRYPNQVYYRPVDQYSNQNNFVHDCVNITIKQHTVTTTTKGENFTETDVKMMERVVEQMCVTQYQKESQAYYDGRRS

Take Tunicamycin: the PrP glycoform pattern result is “accumulate the non-glycosilated specie of PrP”.
